Consider six molecules from DBAASP.

Values after ≈ are worked out from the molar mass of the structure shown.

Common to all, as to experiment: ≥ marks a high value that may be exact or a test limit, other limits are often not marked, values filed in µg/mL are converted to µM
The test system of test [1] is Candida albicans ATCC 90028.
The subject of test [2] is Enterococcus faecium ATCC 29212.
For test [3], the system named is Escherichia coli O157:H7 ATCC 43895.
Test [4] has as its system Malassezia furfur KCTC 7744.
The subject of test [5] is Pseudomonas aeruginosa ATCC 27853.
Test [6] relates to Staphylococcus aureus ATCC 25923.
Test [7] has as its system Streptococcus mutans KCTC 3065.
In test [8] the test system is Trichosporon beigelii KCTC 7707.
Test [9] relates to Vibrio vulnificus ATCC 29307.
Test [10] has as its system Escherichia coli ATCC 25922.
Test [11] deals with Escherichia coli ATCC 9723H.
The subject of test [12] is Escherichia coli NDM.
In test [13] the test system is Pseudomonas aeruginosa ATCC 10148.
Test [14] concerns Staphylococcus aureus ATCC 6538P.
Test [15] concerns Streptococcus pyogenes.
Test [16] concerns Bacillus cereus ATCC 1015.
The test system of test [17] is Leuconostoc mesenteroides ATCC 1059.
Test [18] concerns Staphylococcus aureus MR.
For test [19], the system named is Staphylococcus epidermidis ATCC 1114.
For test [20], the system named is Acinetobacter baumannii ATCC 19606.
The subject of test [21] is Klebsiella pneumoniae ATCC 700603.
For test [22], the system named is Klebsiella pneumoniae ATCC BAA-2146.
Test [23] concerns Pseudomonas aeruginosa FADDI-PA070.
Test [24] deals with Staphylococcus aureus ATCC 43300.
The subject of test [25] is Staphylococcus aureus NRS 17.
The test system of test [26] is Staphylococcus aureus NRS 1.
The subject of test [27] is Staphylococcus aureus VRSA10.
Test [28] deals with Staphylococcus aureus VRSA1.
Test [29] has as its system Streptococcus pneumoniae ATCC 700677.
The test system of test [30] is Cutibacterium acnes PCM 2334.
Test [31] relates to Cutibacterium acnes PCM 2400.
In test [32] the test system is Staphylococcus epidermidis ATCC 12228.
For test [33], the system named is Edwardsiella piscicida FSW 910410.
The test system of test [34] is Streptococcus iniae FP5228.
The subject of test [35] is Streptococcus parauberis KSP 28.
In test [36] the test system is Streptococcus parauberis PH0710.
Test [37] has as its system Vibrio alginolyticus KCCM 2928.
The test system of test [38] is Vibrio anguillarum TR14001NF.
In test [39] the test system is Vibrio campbellii KCCM 40684.
The test system of test [40] is Vibrio harveyi ATCC 14126.
Test [41] concerns Vibrio ordalii KCCM 41669.

With `CSCC[C@H](NC(=O)CNC(=O)[C@H](C)NC(=O)[C@H](C)N)C(=O)NCC(=O)N[C@@H](Cc1ccccc1)C(=O)N[C@@H](Cc1ccccc1)C(=O)NCC(=O)N[C@@H](C)C(=O)N[C@@H](CCCN=C(N)N)C(N)=O` [AAGMGFFGAR], the MIC was 25.4 µM (≈ 25 µg/mL) in test [1]; 25.4 µM (≈ 25 µg/mL) in test [2]; 12.7 µM (≈ 12.5 µg/mL) in test [3]; not below 50.9 µM in [4]; 12.7 µM (≈ 12.5 µg/mL) in test [5]; 25.4 µM (≈ 25 µg/mL) in test [6]. For the same molecule, the MIC in test [7] stood at 12.7 µM (≈ 12.5 µg/mL); in [8], 12.7 µM (≈ 12.5 µg/mL); in test [9] it was 25.4 µM (≈ 25 µg/mL).

As for `CC[C@H](C)[C@H](NC(=O)[C@@H](NC(=O)[C@@H]1CCCN1C(=O)[C@H](Cc1ccccc1)NC(=O)[C@@H](N)Cc1ccccc1)[C@@H](C)CC)C(=O)N[C@@H](C)C(=O)N[C@@H](CCCN=C(N)N)C(=O)N[C@@H](CC(C)C)C(=O)N[C@@H](C)C(=O)N[C@@H](C)C(=O)N[C@@H](CCCCN)C(=O)N[C@H](C(=O)N[C@H](C(=O)N1CCC[C@H]1C(=O)N[C@@H](CO)C(=O)N[C@@H](CC(C)C)C(=O)N[C@H](C(=O)N[C@@H](CS)C(=O)N[C@@H](C)C(=O)N[C@H](C(=O)N[C@H](C(=O)N[C@@H](CCCCN)C(=O)N[C@@H](CCCCN)C(=O)N[C@@H](CS)C(=O)O)[C@@H](C)O)C(C)C)C(C)C)[C@@H](C)CC)C(C)C` [FFPIIARLAAKVIPSLVCAVTKKC], the MIC is 3.46 µM (≈ 8.97 µg/mL) in test [10]; 4.24 µM (≈ 11 µg/mL) in test [11]; 3.46 µM (≈ 8.97 µg/mL) in test [12]; not below 35 µM in test [13]; 1.73 µM (≈ 4.48 µg/mL) in test [14]; not below 35 µM in test [15].

For the molecule `CC[C@H](C)[C@H](NC(=O)[C@H](CC(C)C)NC(=O)[C@@H]1CCCN1C(=O)[C@H](CC(C)C)NC(=O)[C@@H](N)Cc1ccccc1)C(=O)NCC(=O)N[C@@H](CCCCN)C(=O)N[C@@H](CC(C)C)C(=O)N[C@@H](CC(C)C)C(=O)N[C@@H](CO)C(=O)NCC(=O)N[C@@H](CC(C)C)C(=O)N[C@@H](Cc1ccc(O)cc1)C(N)=O` [FLPLIGKLLSGLY], the MIC in [16] was determined as 20.9 µM (≈ 30 µg/mL); in [17], 6.97 µM (≈ 9.99 µg/mL); in test [18], 20.9 µM (≈ 30 µg/mL); in test [19], 20.9 µM (≈ 30 µg/mL).

With `CC[C@H](C)[C@H](NC(=O)[C@@H](N)CC(C)C)C(=O)NCC(=O)N[C@@H](CC(C)C)C(=O)N[C@H](C(=O)N[C@@H](CO)C(=O)N[C@@H](CCCCN)C(=O)NCC(=O)N[C@H](C(=O)N[C@@H](CO)C(=O)N[C@H](C(=O)N[C@@H](CC(C)C)C(=O)N[C@H](C(=O)N[C@@H](CCCCN)C(=O)N[C@H](C(=O)N[C@H](C(=O)N[C@@H](CO)C(=O)N[C@@H](CCCCN)C(=O)N[C@@H](CCCCN)C(=O)N[C@H](C(=O)N[C@@H](CC(C)C)C(=O)N[C@@H](CCCCN)C(=O)N[C@@H](CCC(N)=O)C(N)=O)C(C)C)C(C)C)[C@@H](C)O)C(C)C)C(C)C)[C@@H](C)O)C(C)C` [LIGLVSKGTSVLVKTVSKKVLKQ], the MIC was more than 9.6 µM in [20]; more than 9.6 µM in [10]; more than 9.6 µM in test [21]; 9.6 µM (≈ 23.3 µg/mL) in test [22]; more than 9.6 µM in test [5]; 9.6 µM (≈ 23.3 µg/mL) in test [23]. For the same molecule, the MIC in test [24] was more than 9.6 µM; in test [25], 9.6 µM (≈ 23.3 µg/mL); in test [26], 9.6 µM (≈ 23.3 µg/mL); in [27], 9.6 µM (≈ 23.3 µg/mL); in [28] it was 9.6 µM (≈ 23.3 µg/mL); in [29], 9.6 µM (≈ 23.3 µg/mL).

Consider `CC(C)C[C@H](NC(=O)[C@H](CO)NC(=O)[C@H](CCCCN)NC(=O)[C@H](CO)NC(=O)[C@H](C)NC(=O)[C@H](Cc1ccccc1)NC(=O)[C@H](Cc1ccccc1)NC(=O)[C@H](CCCN=C(N)N)NC(=O)CNC(=O)[C@H](Cc1ccc(O)cc1)NC(=O)[C@H](CC(=O)O)NC(=O)[C@H](CS)NC(=O)[C@H](CCCN=C(N)N)NC(=O)[C@@H](N)CC(C)C)C(=O)N[C@@H](Cc1ccc(O)cc1)C(=O)N[C@@H](CC(=O)O)C(=O)N1CCC[C@H]1C(=O)N[C@@H](CC(C)C)C(=O)N[C@@H](CCCCN)C(=O)N[C@@H](CCCCN)C(=O)N[C@@H](CCCN=C(N)N)C(=O)N[C@@H](CCCN=C(N)N)C(=O)O` [LRCDYGRFFASKSLYDPLKKRR], for which the MIC was 11.5 µM (≈ 31.3 µg/mL) in test [30]; 23 µM (≈ 62.5 µg/mL) in test [31]; more than 735 µM in [10]; more than 735 µM in test [5]; 91.9 µM (≈ 250 µg/mL) in test [6]; 91.9 µM (≈ 250 µg/mL) in [32].

Regarding `CC(C)C[C@H](NC(=O)[C@H](Cc1cnc[nH]1)NC(=O)CNC(=O)[C@@H]1CCCN1C(=O)[C@@H](NC(=O)[C@H](CCC(N)=O)NC(=O)[C@H](Cc1cnc[nH]1)NC(=O)[C@H](CC(C)C)NC(=O)[C@@H](NC(=O)[C@H](CCCCN)NC(=O)[C@@H]1CCCN1C(=O)[C@H](CC(C)C)NC(=O)[C@@H](N)Cc1ccc(O)cc1)C(C)C)[C@@H](C)O)C(=O)N[C@@H](CCCCN)C(=O)N1CCC[C@H]1C(=O)O` [YLPKVLHQTPGHLKP], the MIC in [33] is not below 289 µM; in [34], not below 51.1 µM; in [35], not below 289 µM; in test [36], not below 205 µM; in [37], not below 289 µM; in test [38], not below 289 µM. Moreover, the MIC was not below 289 µM in [39], not below 51.1 µM in test [40] and not below 289 µM in [41].

A word on the MIC: it is the lowest concentration found to suppress growth.
